The target in one experiment is T1, human recombinant HDAC1 (Homo sapiens, UniProt Q13547).
T1 construct: purchased Enzo Life Science BML-SE456
The experiment in a line: HDAC1 enzyme activity inhibition assay (in vitro, fluorimetric). It counts as biochemical. The conditions noted are these: human recombinant HDAC1, fluorimetric kit, 30° C. 60 minutes. The procedure, abridged: (§1)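 IC50 values derive from fluorescence (Ex 360, Em 460) after developer treatment (30 min) of reactions of recombinant human HDAC1 or HDAC6 with 10 μM Fluor de Lys-SIRT1 substrate (60 min, 30 °C). Compounds were serially diluted 5-fold; 0.3 μg enzyme was used for HDAC1, with HDAC6 tested identically.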

The next experiment has as its target T2, human recombinant HDAC6 (Homo sapiens, UniProt Q9UBN7).
T2 construct: purchased Calbiochem 382180
T2 sequence (Q9UBN7 1-1215): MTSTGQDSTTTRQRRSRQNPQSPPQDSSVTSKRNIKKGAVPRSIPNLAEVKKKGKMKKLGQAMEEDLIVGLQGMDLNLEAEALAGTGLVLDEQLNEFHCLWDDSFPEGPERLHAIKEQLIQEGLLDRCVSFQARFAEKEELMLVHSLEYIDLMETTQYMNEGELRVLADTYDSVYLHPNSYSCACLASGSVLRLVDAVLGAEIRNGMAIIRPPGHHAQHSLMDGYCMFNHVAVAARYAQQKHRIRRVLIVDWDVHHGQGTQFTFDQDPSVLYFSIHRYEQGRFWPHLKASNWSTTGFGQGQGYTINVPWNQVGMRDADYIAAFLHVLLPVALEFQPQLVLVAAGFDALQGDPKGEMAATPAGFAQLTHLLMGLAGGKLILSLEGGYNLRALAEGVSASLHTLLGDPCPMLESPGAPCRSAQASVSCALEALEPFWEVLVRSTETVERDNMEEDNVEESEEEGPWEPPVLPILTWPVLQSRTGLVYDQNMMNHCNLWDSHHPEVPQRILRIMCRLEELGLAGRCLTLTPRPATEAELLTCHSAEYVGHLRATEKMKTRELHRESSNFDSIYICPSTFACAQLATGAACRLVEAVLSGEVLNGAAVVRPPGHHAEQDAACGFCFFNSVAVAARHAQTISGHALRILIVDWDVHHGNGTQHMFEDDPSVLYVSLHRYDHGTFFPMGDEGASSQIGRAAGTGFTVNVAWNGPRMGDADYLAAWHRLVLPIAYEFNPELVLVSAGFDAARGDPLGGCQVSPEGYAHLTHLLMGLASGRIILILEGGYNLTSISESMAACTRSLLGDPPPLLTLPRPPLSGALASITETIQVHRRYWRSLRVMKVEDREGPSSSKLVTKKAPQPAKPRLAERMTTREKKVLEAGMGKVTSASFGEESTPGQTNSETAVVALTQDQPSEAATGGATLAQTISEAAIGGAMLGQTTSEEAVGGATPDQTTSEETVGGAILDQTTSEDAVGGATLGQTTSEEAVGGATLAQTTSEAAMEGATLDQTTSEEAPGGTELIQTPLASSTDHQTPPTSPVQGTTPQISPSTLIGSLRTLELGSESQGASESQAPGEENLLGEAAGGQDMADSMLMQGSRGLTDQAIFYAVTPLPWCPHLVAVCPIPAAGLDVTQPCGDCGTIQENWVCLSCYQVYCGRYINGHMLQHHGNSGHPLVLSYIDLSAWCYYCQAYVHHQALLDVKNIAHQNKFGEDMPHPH
Description: HDAC6 enzyme activity inhibition assay (in vitro, fluorimetric). Type of experiment: biochemical. The conditions noted are these: for HDAC6 selectivity (fold): HDAC6 selectivity over HDAC1; for IC50: human recombinant HDAC6, fluorimetric kit, same protocol as HDAC1. Summed up: as §1

T1 sequence (Q13547 whole entry): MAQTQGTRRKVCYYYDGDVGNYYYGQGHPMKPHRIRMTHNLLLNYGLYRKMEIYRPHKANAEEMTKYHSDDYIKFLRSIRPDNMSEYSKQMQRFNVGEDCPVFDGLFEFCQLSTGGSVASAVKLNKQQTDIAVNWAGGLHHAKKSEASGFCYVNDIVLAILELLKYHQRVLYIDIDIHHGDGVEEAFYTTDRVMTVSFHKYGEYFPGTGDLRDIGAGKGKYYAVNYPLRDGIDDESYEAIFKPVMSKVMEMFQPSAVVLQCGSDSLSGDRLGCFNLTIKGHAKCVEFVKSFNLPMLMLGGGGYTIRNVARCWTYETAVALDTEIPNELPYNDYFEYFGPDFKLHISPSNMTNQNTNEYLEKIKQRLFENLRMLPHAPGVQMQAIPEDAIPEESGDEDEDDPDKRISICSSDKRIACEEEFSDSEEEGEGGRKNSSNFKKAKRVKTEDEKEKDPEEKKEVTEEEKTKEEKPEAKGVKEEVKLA

Regarding `C[C@@H]1CN(C(=O)c2cccc(-c3cccnc3)c2)C[C@H](C)N1Cc1ccc(C(=O)NO)cc1` [Compound 261, 4-(((2S,6R)-2,6-dimethyl-4-(3-(pyridin-3-yl)benzoyl)piperazin-1-yl)methyl)-N-hydroxybenzamide], the IC50 – broadly, the point on the concentration scale where inhibition reaches its midpoint – on human recombinant HDAC1 amounted to 2 µM; at human recombinant HDAC6, 0.577 µM. Further, the “HDAC6 selectivity (fold)” value on human recombinant HDAC6 was determined as 3 fold.
In the same order, the values of `C[C@@H]1CN(Cc2ccc(C(=O)NO)cc2)C[C@H](C)N1Cc1cccc(CN2CC[C@@H](F)C2)c1` [Compound 383, 4-(((3R,5S)-4-(3-(((R)-3-fluoropyrrolidin-1-yl)methyl)benzyl)-3,5-dimethylpiperazin-1-yl)methyl)-N-hydroxybenzamide] are over 10 µM, 0.098 µM and over 102 fold.
As for `C[C@@H]1CN(Cc2ccc(C(=O)NO)cc2)C[C@H](C)N1C(=O)c1cccc(C2=CCOCC2)c1` [Compound 244, 4-(((3R,5S)-4-(3-(3,6-dihydro-2H-pyran-4-yl)benzoyl)-3,5-dimethylpiperazin-1-yl)methyl)-N-hydroxybenzamide], the IC50 worked out at 3.4 µM on human recombinant HDAC1 and 0.097 µM on human recombinant HDAC6. Also, the “HDAC6 selectivity (fold)” value on human recombinant HDAC6 is recorded as 35 fold.
Consider `C[C@@H]1CN(S(=O)(=O)c2ccc(Cl)cc2)C[C@H](C)N1Cc1ccc(C(=O)NO)cc1` [Compound 109, 4-(((2S,6R)-4-((4-chlorophenyl)sulfonyl)-2,6-dimethylpiperazin-1-yl)methyl)-N-hydroxybenzamide], for which, on human recombinant HDAC1, the IC50 was found to be 5.1 µM. On human recombinant HDAC6, the “HDAC6 selectivity (fold)” value is reported as 67 fold and the half-maximal inhibitory concentration (IC50) is 0.075 µM.
In the same order, the values of `CCN(CC)C[C@@H](C)NCc1cccc(CN2[C@H](C)CN(Cc3ccc(C(=O)NO)cc3)C[C@@H]2C)c1` [Compound 455, 4-(((3R,5S)-4-(3-(((1-(diethylamino)propan-2-yl)amino)methyl)benzyl)-3,5-dimethylpiperazin-1-yl)methyl)-N-hydroxybenzamide] are 9.6 µM, 93 fold and 0.103 µM.
Taken in the same sequence, the figures for `C[C@@H]1CN(Cc2ccc(C(=O)NO)cc2)C[C@H](C)N1C(=O)c1ccc(CN2CCOCC2)cc1` [Compound 458, 4-(((3R,5S)-3,5-dimethyl-4-(4-(morpholinomethyl)benzoyl)piperazin-1-yl)methyl)-N-hydroxybenzamide] were 6.1 µM, 21 fold and 0.286 µM.
In the same order, the values of `COc1ccc(NC(=O)N2C[C@@H](C)N(Cc3ccc(C(=O)NO)cc3)[C@@H](C)C2)cc1` [Compound 165, (3R,5S)-4-(4-(hydroxycarbamoyl)benzyl)-N-(4-methoxyphenyl)-3,5-dimethylpiperazine-1-carboxamide] are 1.4 µM, 2 fold and 0.56 µM.
`C[C@@H]1CN(Cc2ccc(/C=C/C(=O)NO)cc2)C[C@H](C)N1Cc1ccccc1` [Compound 172, (E)-3-(4-(((3R,5S)-4-benzyl-3,5-dimethylpiperazin-1-yl)methyl)phenyl)-N-hydroxyacrylamide]: the IC50 at human recombinant HDAC1 worked out at 1.3 µM. Besides, at human recombinant HDAC6, the “HDAC6 selectivity (fold)” value was 35 fold and the IC50 turned out to be 0.038 µM.
In the same order, the values of `C[C@@H]1CN(Cc2ccc(C(=O)NO)cc2)C[C@H](C)N1C(=O)c1ccc(CN2CCN(S(C)(=O)=O)CC2)cc1` [Compound 463, 4-(((3R,5S)-3,5-dimethyl-4-(4-((4-(methylsulfonyl)piperazin-1-yl)methyl)benzoyl)piperazin-1-yl)methyl)-N-hydroxybenzamide] are 4.7 µM, 18 fold and 0.256 µM.
Take `C[C@@H]1CN(C(=O)Cc2cccc(Cl)c2)C[C@H](C)N1Cc1ccc(C(=O)NO)cc1` [Compound 233, 4-(((2S,6R)-4-(2-(3-chlorophenyl)acetyl)-2,6-dimethylpiperazin-1-yl)methyl)-N-hydroxybenzamide]: the half-inhibitory concentration (IC50) on human recombinant HDAC1 was determined as 16.9 µM. Moreover, on human recombinant HDAC6, the “HDAC6 selectivity (fold)” value is recorded as 11 fold and the concentration for half-maximal inhibition (IC50) worked out at 1.48 µM.
In the same order, the values of `CC(C)N1C[C@@H](C)N(Cc2ccc(C(=O)NO)cc2)[C@@H](C)C1` [Compound 273, N-hydroxy-4-(((2S,6R)-4-isopropyl-2,6-dimethylpiperazin-1-yl)methyl)benzamide] are 13.7 µM, 31 fold and 0.441 µM.
`Cc1ccc(C(=O)N2[C@H](C)CN(Cc3ccc(C(=O)NO)cc3)C[C@@H]2C)cc1` [Compound 290, 4-(((3R,5S)-3,5-dimethyl-4-(4-methylbenzoyl)piperazin-1-yl)methyl)-N-hydroxybenzamide]: the concentration for half-maximal inhibition (IC50) came to 3.8 µM at human recombinant HDAC1 and 0.079 µM on human recombinant HDAC6. Besides, the “HDAC6 selectivity (fold)” value at human recombinant HDAC6 is 48 fold.
Taken in the same sequence, the figures for `COc1ccc(C(=O)N2[C@H](C)CN(Cc3ccc(C(=O)NO)cc3)C[C@@H]2C)cc1` [Compound 291, N-hydroxy-4-(((3R,5S)-4-(4-methoxybenzoyl)-3,5-dimethylpiperazin-1-yl)methyl)benzamide] were 1.3 µM, 0.055 µM and 24 fold.
Taken in the same sequence, the figures for `C[C@@H]1CN(Cc2ccc(C(=O)NO)cc2)C[C@H](C)N1C(=O)c1cc[nH]n1` [Compound 403, 4-(((3R,5S)-3,5-dimethyl-4-(1H-pyrazole-3-carbonyl)piperazin-1-yl)methyl)-N-hydroxybenzamide] were 3.2 µM, 0.061 µM and 53 fold.
In the same order, the values of `C[C@@H]1CN(Cc2ccc(C(=O)NO)cc2)C[C@H](C)N1C(=O)c1cccc(Cl)c1` [Compound 121, 4-(((3R,5S)-4-(3-chlorobenzoyl)-3,5-dimethylpiperazin-1-yl)methyl)-N-hydroxybenzamide] are 11.8 µM, 0.029 µM and 407 fold.
Regarding `C[C@@H]1CN(Cc2ccc(/C=C/C(=O)NO)cc2)C[C@H](C)N1C(=O)Cc1ccccc1` [Compound 323, (E)-3-(4-(((3R,5S)-3,5-dimethyl-4-(2-phenylacetyl)piperazin-1-yl)methyl)phenyl)-N-hydroxyacrylamide], at human recombinant HDAC1, the IC50 was over 10 µM. Further, on human recombinant HDAC6, the “HDAC6 selectivity (fold)” value is over 11 fold and the IC50 was found to be 0.921 µM.
In the same order, the values of `C[C@@H]1CN(Cc2ccc(C(=O)NO)cc2)C[C@H](C)N1Cc1cccc(C(=O)N2CCOCC2)c1` [Compound 446, 4-(((3R,5S)-3,5-dimethyl-4-(3-(morpholine-4-carbonyl)benzyl)piperazin-1-yl)methyl)-N-hydroxybenzamide] are 3.8 µM, 33 fold and 0.114 µM.
Taken in the same sequence, the figures for `C[C@@H]1CN(Cc2ccc(C(=O)NO)cc2)C[C@H](C)N1Cc1cccc(CN2CCOCC2)c1` [Compound 356, 4-(((3R,5S)-3,5-dimethyl-4-(3-(morpholinomethyl)benzyl)piperazin-1-yl)methyl)-N-hydroxybenzamide] were 12.3 µM, 558 fold and 0.022 µM.
In the same order, the values of `C[C@@H]1CN(Cc2ccc(-c3ccco3)cc2)C[C@H](C)N1Cc1ccc(/C=C/C(=O)NO)cc1` [Compound 477, (E)-3-(4-(((2S,6R)-4-(4-(furan-2-yl)benzyl)-2,6-dimethylpiperazin-1-yl)methyl)phenyl)-N-hydroxyacrylamide] are 2.7 µM, 11 fold and 0.253 µM.
Consider `CC(CN(C)Cc1ccccc1)NCc1cccc(C(=O)N2[C@H](C)CN(Cc3ccc(C(=O)NO)cc3)C[C@@H]2C)c1` (stereo partly drawn) [Compound 441, 4-(((3R,5S)-4-(3-(((1-(benzyl(methyl)amino)propan-2-yl)amino)methyl)benzoyl)-3,5-dimethylpiperazin-1-yl)methyl)-N-hydroxybenzamide], for which the IC50 at human recombinant HDAC1 is 5.4 µM. In addition, on human recombinant HDAC6, the “HDAC6 selectivity (fold)” value stood at 154 fold and the half-inhibitory concentration (IC50) stood at 0.035 µM.

The record behind these values is US10287255B2, “Compounds as histone deacetylase 6 inhibitors and pharmaceutical compositions comprising the same” (CHONG KUN DANG PHARMACEUTICAL CORP., priority 2014, dated 2019).
